Assay results from publication PMC4664966, “Discovery and characterization of novel inhibitors of the sodium-coupled citrate transporter (NaCT or SLC13A5)” (Scientific Reports, 2015).

What was measured:
human hepatocytes = assay: Incorporation of [14C]-citrate into triglycerides by human hepatocytes; format: cell-based; details: radiolabeled citrate for 24 hours
Description: Incorporation of [^14C]-citrate into triglycerides by human hepatocytes was measured using the same procedure as above except cells were incubated with the radioactive citrate for 24 hours. Subsequently, the media was aspirated and 100 μL of isopropyl alcohol:THF (9:1) was added. The plate was shaken for 15 minutes, centrifuged at 3000 revolutions per minute for 5 minutes, and 50 μL of supernatant from each well was applied per TLC lane (Whatman LK6D Silica Gel Plates). Radiolabeled lipids were resolved using a 2-solvent system: Solvent 1 contained a 100:100:100:40:36 mixture of ethyl acetate:isopropyl alcohol:CHCl3:MeOH:0.25% KCl and Solvent 2 a 70:27:3 hexane:diethyl ether:acetic acid mixture. The TLC plate was dried under nitrogen for 30 minutes and [^14C]-standards added to a vacant lane. Bands were visualized and quantitated using a Molecular Dynamics’ Storm 860 PhosphorImager system following 18–36 hours exposure to a Phosphorimager screen.

HEKNaCT cells = assay: OCR and ECAR measurements in HEKNaCT cells incubated with citrate (Seahorse); format: cell-based, human; details: 30 μM compound
Description: HEKNaCT cells were plated at 12,000 cells/well onto a poly-d-lysine coated XF96 plate (Sigma, Seahorse Biosciences). Cells were plated in culture media containing HG DMEM, 10% FBS, 2 mM glutamine, 1 mM pyruvate, 0.5 mg/mL Geneticin, and 1% penicillin/streptomycin (Life Technologies) and incubated overnight at 37 °C. The following day, the media was changed to Seahorse Biosciences assay medium (Seahorse Biosciences) supplemented with 10 mM glucose and 2 mM pyruvate (Sigma). The plate was pre-incubated for 1 hour in a 37 °C air incubator. […]

CYP1A2 = CYP1A2 (Homo sapiens, UniProt P05177); assay: Selectivity data (Table S1); format: in vitro ADME; details: 3 µM
[1] = biological target: Cytochrome P450 1A2 (CYP1A2) (Homo sapiens, UniProt P05177); assay: Selectivity data (Table S1); format: in vitro ADME
CYP2C8 = CYP2C8 (Homo sapiens, UniProt P10632); assay: Selectivity data (Table S1); format: in vitro ADME; details: 3 µM
[2] = biological target: Cytochrome P450 2C8 (CYP2C8) (Homo sapiens, UniProt P10632); assay: Selectivity data (Table S1); format: in vitro ADME
CYP2D6 = CYP2D6 (Homo sapiens, UniProt P10635); assay: Selectivity data (Table S1); format: in vitro ADME; details: 3 µM
[3] = biological target: Cytochrome P450 2D6 (CYP2D6) (Homo sapiens, UniProt P10635); assay: Selectivity data (Table S1); format: in vitro ADME
[4] = biological target: Lymphocyte-specific protein tyrosine kinase (LCK) (Homo sapiens, UniProt P06239); assay: Selectivity data (Table S1); format: biochemical
[5] = biological target: Mitogen-activated protein kinase 14 (MAPK14 / P38-alpha) (Homo sapiens, UniProt Q16539); assay: Selectivity data (Table S1); format: biochemical
[6] = biological target: Phosphodiesterase 5A1 (PDE5A1) (Homo sapiens, UniProt O76074); assay: Selectivity data (Table S1); format: biochemical
[7] = biological target: Proto-oncogene tyrosine-protein kinase (SRC) (Homo sapiens, UniProt P12931); assay: Selectivity data (Table S1); format: biochemical
Calcium channel, L-type = assay: Selectivity data (Table S1)
[8] = biological target: Human ether-a-go-go (hERG) (Homo sapiens, UniProt Q12809); assay: Selectivity data (Table S1)
[9] = biological target: Potassium voltage-gated channel, KQT-like subfamily, member 1 (KCNQ1) (Homo sapiens, UniProt P51787); assay: in vitro
mice fed a HFD = assay: Chronic treatment of mice fed a HFD (OGTT, hepatic lipids)
Description: In studies requiring chronic treatment with compound, mice were purchased at 18 weeks of age following 13 weeks of HFD administration (D12459i; 60% of the calories from fat). Mice were maintained on HFD for the duration of the study in a 12:12-h light/dark cycle. […] To perform an oral glucose tolerance test (day 20 of dosing), mice were fasted at 6:00 AM to 12:00 PM and administered P.O. 1.5 g/kg at 12:00 PM. Glucose concentrations were determined using an AlphaTrak (Abbott Laboratories) at 0, 15, 30, 60, and 90 minutes. […] Hepatic lipids were measured by LC-MS/MS as previously described[42].

DIO mice = assay: Plasma glucose concentrations in DIO mice, acute or sub-chronic dosing; details: single 250 mg/kg dose or 3 days 250 mg/kg BID
[10] = HFD mice, 250 mg/kg BID for 21 days

Sequence of Human ether-a-go-go (hERG) (Q12809 whole entry): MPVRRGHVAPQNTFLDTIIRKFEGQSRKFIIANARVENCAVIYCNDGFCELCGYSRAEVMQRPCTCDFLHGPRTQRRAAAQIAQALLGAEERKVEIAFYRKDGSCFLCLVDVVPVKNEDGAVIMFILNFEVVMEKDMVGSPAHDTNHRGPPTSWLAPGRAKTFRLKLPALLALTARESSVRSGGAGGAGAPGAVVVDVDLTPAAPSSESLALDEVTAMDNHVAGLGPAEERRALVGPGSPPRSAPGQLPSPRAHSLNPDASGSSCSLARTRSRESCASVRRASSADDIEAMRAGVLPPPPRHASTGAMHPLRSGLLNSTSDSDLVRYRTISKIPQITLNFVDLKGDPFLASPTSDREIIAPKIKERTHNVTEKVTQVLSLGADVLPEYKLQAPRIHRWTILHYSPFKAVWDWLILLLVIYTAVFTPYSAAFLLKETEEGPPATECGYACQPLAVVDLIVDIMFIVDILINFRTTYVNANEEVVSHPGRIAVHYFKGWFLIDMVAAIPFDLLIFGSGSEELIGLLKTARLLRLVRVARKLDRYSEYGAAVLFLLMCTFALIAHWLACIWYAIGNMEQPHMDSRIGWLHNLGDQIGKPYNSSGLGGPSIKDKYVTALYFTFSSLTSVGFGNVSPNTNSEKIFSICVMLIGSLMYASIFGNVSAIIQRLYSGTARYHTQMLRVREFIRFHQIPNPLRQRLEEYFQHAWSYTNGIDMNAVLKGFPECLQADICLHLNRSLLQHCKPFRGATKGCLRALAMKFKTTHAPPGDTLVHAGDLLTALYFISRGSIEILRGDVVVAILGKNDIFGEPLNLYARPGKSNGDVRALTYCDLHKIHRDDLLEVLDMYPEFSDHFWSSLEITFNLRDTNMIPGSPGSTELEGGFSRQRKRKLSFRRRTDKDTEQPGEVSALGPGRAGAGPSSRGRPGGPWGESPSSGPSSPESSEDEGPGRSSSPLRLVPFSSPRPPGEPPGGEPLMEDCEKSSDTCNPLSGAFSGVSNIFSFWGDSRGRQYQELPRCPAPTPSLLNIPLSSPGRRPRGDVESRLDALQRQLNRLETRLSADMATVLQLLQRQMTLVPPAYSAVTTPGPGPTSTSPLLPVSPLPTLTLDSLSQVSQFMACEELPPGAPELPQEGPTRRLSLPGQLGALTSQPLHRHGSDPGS
Sequence of Cytochrome P450 2C8 (CYP2C8) (P10632 whole entry): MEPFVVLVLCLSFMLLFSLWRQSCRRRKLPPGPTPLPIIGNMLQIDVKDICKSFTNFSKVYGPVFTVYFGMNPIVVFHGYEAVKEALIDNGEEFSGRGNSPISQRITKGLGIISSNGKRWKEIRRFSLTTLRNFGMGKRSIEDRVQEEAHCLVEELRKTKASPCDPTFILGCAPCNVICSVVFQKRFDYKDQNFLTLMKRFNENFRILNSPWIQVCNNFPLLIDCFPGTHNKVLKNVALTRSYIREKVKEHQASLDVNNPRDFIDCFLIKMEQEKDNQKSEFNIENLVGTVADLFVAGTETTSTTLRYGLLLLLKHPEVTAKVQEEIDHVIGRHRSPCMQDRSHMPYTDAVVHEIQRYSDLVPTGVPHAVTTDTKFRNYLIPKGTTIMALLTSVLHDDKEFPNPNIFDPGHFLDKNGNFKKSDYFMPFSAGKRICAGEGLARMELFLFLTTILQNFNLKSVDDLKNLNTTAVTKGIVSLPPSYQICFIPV
Sequence of CYP2C8 (P10632 whole entry): as above
Sequence of Potassium voltage-gated channel, KQT-like subfamily, member 1 (KCNQ1) (P51787 whole entry): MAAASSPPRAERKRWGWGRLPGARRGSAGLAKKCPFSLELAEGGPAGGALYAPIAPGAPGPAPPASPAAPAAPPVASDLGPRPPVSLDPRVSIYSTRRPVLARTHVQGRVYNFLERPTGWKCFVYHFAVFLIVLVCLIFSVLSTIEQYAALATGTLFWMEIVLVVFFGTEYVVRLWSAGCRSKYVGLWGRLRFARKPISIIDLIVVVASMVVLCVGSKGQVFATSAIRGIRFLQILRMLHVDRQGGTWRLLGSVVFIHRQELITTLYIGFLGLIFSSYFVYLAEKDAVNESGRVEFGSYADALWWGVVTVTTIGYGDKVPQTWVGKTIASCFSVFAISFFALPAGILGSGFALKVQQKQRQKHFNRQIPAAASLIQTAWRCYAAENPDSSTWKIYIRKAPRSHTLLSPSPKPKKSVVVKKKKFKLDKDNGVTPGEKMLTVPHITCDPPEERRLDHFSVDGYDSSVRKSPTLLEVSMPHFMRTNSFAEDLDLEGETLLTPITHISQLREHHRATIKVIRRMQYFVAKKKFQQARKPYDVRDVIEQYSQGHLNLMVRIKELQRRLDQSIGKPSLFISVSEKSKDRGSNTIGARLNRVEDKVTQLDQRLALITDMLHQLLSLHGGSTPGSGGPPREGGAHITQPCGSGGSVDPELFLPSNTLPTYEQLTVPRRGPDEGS
Sequence of Mitogen-activated protein kinase 14 (MAPK14 / P38-alpha) (Q16539 whole entry): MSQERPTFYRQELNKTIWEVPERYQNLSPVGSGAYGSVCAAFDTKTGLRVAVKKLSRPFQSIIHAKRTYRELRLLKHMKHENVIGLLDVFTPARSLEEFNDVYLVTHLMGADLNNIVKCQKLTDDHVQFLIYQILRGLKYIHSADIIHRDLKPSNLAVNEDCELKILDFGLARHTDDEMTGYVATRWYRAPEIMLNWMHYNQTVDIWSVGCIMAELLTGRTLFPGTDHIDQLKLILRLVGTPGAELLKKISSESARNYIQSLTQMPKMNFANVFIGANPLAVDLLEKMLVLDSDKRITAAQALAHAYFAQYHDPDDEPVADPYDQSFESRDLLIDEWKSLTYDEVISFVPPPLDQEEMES
Sequence of Proto-oncogene tyrosine-protein kinase (SRC) (P12931 whole entry): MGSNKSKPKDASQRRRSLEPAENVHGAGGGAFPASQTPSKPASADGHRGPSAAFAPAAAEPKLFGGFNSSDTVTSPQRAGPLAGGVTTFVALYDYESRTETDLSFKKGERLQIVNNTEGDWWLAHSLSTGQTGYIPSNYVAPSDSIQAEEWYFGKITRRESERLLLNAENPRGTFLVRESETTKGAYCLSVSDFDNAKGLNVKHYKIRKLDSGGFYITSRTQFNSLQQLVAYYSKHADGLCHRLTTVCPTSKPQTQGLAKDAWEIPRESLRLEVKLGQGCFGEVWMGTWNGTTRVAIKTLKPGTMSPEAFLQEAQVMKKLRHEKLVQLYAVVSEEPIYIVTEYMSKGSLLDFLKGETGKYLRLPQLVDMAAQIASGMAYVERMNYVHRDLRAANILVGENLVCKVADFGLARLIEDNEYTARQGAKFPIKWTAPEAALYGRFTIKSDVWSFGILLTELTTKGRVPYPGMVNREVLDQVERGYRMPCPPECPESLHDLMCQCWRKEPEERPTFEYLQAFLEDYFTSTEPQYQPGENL
Sequence of CYP1A2 (P05177 whole entry): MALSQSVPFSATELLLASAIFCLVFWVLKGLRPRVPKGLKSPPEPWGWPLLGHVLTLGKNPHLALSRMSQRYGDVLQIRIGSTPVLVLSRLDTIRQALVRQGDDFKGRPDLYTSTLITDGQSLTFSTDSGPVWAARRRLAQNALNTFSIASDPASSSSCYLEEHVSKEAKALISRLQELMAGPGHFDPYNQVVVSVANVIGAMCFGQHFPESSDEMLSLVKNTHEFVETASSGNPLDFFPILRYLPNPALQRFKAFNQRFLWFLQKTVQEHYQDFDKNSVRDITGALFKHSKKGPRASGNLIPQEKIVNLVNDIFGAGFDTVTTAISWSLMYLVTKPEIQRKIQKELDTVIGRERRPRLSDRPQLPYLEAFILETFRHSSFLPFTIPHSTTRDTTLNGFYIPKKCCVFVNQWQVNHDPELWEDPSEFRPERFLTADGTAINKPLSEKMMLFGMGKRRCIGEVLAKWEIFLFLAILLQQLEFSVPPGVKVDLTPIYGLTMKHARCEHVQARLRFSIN
Sequence of Cytochrome P450 1A2 (CYP1A2) (P05177 whole entry): as above
Sequence of Cytochrome P450 2D6 (CYP2D6) (P10635 whole entry): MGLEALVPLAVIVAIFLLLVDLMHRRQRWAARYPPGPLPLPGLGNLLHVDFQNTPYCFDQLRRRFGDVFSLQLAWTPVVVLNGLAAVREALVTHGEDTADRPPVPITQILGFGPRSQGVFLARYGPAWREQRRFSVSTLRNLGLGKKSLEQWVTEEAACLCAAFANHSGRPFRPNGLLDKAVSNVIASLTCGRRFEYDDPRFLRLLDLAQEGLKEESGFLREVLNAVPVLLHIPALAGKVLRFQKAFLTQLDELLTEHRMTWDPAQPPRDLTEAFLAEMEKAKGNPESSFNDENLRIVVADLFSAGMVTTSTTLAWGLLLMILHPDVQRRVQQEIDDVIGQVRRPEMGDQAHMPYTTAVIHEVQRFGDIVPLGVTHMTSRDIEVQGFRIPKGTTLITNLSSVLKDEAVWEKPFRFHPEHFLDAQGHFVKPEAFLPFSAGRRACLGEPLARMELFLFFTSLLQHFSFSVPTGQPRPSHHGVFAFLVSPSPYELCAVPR
Sequence of CYP2D6 (P10635 whole entry): as above
Sequence of Lymphocyte-specific protein tyrosine kinase (LCK) (P06239 whole entry): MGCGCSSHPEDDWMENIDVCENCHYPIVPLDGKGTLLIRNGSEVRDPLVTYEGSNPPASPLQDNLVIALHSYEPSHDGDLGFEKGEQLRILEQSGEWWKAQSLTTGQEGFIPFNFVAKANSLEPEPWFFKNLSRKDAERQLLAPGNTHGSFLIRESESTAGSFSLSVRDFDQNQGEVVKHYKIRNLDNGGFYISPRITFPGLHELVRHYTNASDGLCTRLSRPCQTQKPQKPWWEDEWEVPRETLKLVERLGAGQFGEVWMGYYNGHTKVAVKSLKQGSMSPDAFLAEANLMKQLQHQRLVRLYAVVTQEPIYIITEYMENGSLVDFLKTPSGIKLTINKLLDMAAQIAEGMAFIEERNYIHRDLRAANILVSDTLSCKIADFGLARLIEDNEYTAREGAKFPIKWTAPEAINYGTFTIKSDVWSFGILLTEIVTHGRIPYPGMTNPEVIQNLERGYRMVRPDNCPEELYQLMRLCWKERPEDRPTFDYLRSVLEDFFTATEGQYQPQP

CC(C)(C)c1ccc(CC[C@@](O)(CC(=O)O)C(=O)O)cc1 [Compound 2]
label incorporation in TAG (human hepatocytes): decreased dose-dependently
effect on citrate induced increase in oxygen consumption rate (OCR) (HEKNaCT cells): prevented citrate induced increase in mitochondrial respiration
effect on citrate suppressed extracellular acidification rate (ECAR) (HEKNaCT cells; citrate): restored
inhibition at 3 µM (CYP1A2): < 10%
interaction/inhibition of CYP1A2 [1]: no significant interaction/inhibition
inhibition at 3 µM (CYP2C8): < 10%
interaction/inhibition of CYP2C8 [2]: no significant interaction/inhibition
inhibition at 3 µM (CYP2D6): < 10%
interaction/inhibition of CYP2D6 [3]: no significant interaction/inhibition
inhibition at 100 µM [4]: < 10%
inhibition at 100 µM [5]: < 10%
IC50 [6]: > 30 µM
inhibition at 100 µM [7]: < 10%
IC50 (Calcium channel, L-type): > 30 µM
IC50 [8]: > 100 µM
interaction/inhibition of the hERG channel [8]: no significant interaction/inhibition
inhibition at 10 µM [9]: < 10%
plasma insulin concentrations area under the curve during OGTT (mice fed a HFD; HFD mice, 250 mg/kg BID): no differences
hepatic TAG and DAG (mice fed a HFD; [10]): trend for lower
hepatic acylcarnitine (mice fed a HFD; [10]): higher levels
β-hydroxybutyrate concentrations (mice fed a HFD; [10]): 0.49 ± 0.06 mmol/L
glucose intolerance during OGTT (mice fed a HFD; HFD mice, 250 mg/kg BID, day 20): completely reversed
phenotype analogous to epileptic encephalopathy (mice fed a HFD; during the in vivo experiments): no phenotype analogous to epileptic encephalopathy was observed
plasma glucose concentrations (DIO mice): modest but significant reductions
